Measurements published in EPA's ToxValDB 9.5 (doi:10.2903/j.efsa.2009.1341).
In brackets after ≈: the same amount, converted by molar mass.

Columns and labels:
Canidae = settings: short-term; duration: 2 weeks; Dog Other
Apis mellifera = settings: acute; duration: 48 hours; inhalation; unspecified; mortality
Rattus norvegicus = settings: for LD50: acute
Daphnia magna = settings: chronic/long-term; duration: 21 days; mortality
Mus musculus = settings: chronic; duration: 2 years; inhalation; histopathology: nonneoplastic
Cyprinodon variegatus = settings: acute; duration: 96 hours; mortality
Pimephales promelas = settings: chronic/long-term; duration: 33 days; growth

SMILES: ClC=CCCl [1,3-Dichloropropene]
- NOAEL (Canidae): 20 mg/kg-day
- NOEC (Apis mellifera): 115 mg/m3
- LC50 (Tagia sp.; acute, duration: 14 days, mortality): 55.6 mg/kg
- NOEC (Tagia sp.; chronic/long-term, duration: 56 days, reproduction): 770 mg/kg
- LD50 (Rattus norvegicus; inhalation, mortality): 2.7 mg/L
- LD50 (Rattus norvegicus; oral, mortality): 130 mg/kg
- NOAEL (Rattus norvegicus; chronic, duration: 2 years, oral, diet, histopathology: neoplastic): 2.5 mg/kg-day
- NOAEL (Rattus norvegicus; chronic, oral, mortality): 2.5 mg/kg-day
- NOAEL (Rattus norvegicus; reproduction developmental, inhalation, reproduction): < 0.0908 mg/L
- NOAEL (Rattus norvegicus; subchronic, duration: 13 weeks, inhalation, histopathology: nonneoplastic): 9.72 mg/kg-day
- NOAEL (Rattus norvegicus; subchronic, duration: 90 days, oral, mortality): 5 mg/kg-day
- NOEC (Daphnia magna): 0.0701 mg/L
- NOAEL (Mus musculus): 1.1 mg/kg-day
- LC50 (Cyprinodon variegatus): 0.87 µg/mL (≈ 7.84 µM)
- NOEC (Pimephales promelas): 0.032 mg/L
